Laboratory results: patent US20240083839A1, “COMPOSITIONS AND METHODS FOR TREATING NEURODEGENERATIVE DISEASES AND DISORDERS” (The Regents of the University of California, priority 2020, published 2024)
pEC50, pIC50: −log10 of the molar value. “And” between values parts separate entries of the source, which are not always exact repeats. Identical values can stand only once.

Experiments:
[1] = tested on: PRMT8 protein levels in E4-N2a cells; assay: Immunoblot of PRMT8 protein levels in E4-N2a cells; type: cell-based, murine; settings: 10 μM
From the text: (§1) Due both the sequence homology and functional similarity of PRMT family members, in follow-up experiments PRMT 1, 4, and 8 inhibitors as well as assays for inhibition by those PRMTs were used. […] This profile may be due to its binding to an allosteric site on the PRMT8 enzyme and needs further kinetic analysis. […] The mode & inhibition kinetics to be investigated in the renewal grant.

[2] = target: PRMT8 (Homo sapiens, UniProt Q9NR22); assay: Cell-free PRMT enzyme activity assay, PRMT8; type: biochemical
PRMT8, sequence (Q9NR22 whole entry, species assumed): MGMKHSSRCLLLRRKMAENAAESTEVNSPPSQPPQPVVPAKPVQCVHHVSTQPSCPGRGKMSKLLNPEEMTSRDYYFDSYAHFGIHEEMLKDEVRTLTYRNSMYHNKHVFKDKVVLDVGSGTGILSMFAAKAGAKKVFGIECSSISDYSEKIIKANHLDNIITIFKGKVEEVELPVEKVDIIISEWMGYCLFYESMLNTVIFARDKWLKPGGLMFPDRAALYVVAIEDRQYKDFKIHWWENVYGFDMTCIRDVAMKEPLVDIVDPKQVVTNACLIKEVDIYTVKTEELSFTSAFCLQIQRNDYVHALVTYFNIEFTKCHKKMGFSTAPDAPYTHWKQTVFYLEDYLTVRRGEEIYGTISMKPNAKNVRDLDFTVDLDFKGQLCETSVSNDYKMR
From the text: as §1
Testing of additional A03 analogs are ongoing. For affinity purification, DDL215 that was used through clicking to beads. […] An initial correlation between cell-free PRMT8 inhibition and neuronal SirT1 enhancement (in cells) at 5 μM was seen (FIG. 10B).

[3] = tested on: SirT1 levels in SH-SY5Y cells; assay: SirT1 in SH-SY5Y cells transiently transfected with ApoE4; type: cell-based, human
[4] = target: PRMT1 (Homo sapiens, UniProt Q99873); assay: Cell-free PRMT enzyme activity assay, PRMT1; type: biochemical; settings: A03 at 5 μM
PRMT1, sequence (Q99873 whole entry, species assumed): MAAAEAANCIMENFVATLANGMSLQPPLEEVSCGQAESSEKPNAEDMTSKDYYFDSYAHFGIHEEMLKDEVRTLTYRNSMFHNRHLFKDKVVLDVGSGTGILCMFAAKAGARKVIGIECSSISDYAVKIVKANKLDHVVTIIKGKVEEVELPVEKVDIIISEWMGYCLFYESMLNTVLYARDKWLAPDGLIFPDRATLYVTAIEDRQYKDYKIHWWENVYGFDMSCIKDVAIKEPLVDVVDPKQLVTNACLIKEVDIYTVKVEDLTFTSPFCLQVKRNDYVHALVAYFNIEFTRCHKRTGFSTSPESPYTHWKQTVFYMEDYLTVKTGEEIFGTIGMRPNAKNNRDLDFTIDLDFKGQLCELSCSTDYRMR
From the text: Due both the sequence homology and functional similarity of PRMT family members, in follow-up experiments PRMT 1, 4, and 8 inhibitors as well as assays for inhibition by those PRMTs were used. […] The mode & inhibition kinetics to be investigated in the renewal grant.

[5] = target: T1, PRMT4 (Homo sapiens, UniProt Q86X55); assay: Cell-free PRMT enzyme activity assay, PRMT4; type: biochemical; settings: A03 at 5 μM
T1 sequence (Q86X55 1-608): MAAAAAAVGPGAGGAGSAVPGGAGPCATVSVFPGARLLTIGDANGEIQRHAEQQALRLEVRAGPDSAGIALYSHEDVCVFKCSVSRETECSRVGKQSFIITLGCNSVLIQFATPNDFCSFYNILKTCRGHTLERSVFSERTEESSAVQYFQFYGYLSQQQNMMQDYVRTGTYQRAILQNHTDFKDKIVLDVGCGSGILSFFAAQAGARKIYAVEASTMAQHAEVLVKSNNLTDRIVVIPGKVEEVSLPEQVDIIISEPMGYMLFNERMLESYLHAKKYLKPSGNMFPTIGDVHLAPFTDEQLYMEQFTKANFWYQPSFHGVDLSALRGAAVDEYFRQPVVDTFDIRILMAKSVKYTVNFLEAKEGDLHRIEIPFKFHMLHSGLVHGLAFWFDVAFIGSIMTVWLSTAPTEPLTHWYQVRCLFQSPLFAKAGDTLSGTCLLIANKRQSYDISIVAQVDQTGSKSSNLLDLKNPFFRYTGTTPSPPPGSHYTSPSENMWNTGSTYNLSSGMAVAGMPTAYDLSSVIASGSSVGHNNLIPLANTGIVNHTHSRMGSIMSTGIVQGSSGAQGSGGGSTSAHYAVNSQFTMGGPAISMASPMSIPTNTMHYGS
From the text: as §1

[6] = tested on: ApoE4 and RNA polymerase II binding to the SirT1 promoter; assay: ChIP and real time PCR of SirT1 promoter binding in N2a-E4 cells; type: cell-based, mouse; settings: 6 hour treatment (A03 50 μM), versus DMSO
Method: Cells were then fixed with formaldehyde, lysed with SDS buffer, and sonicated using a temperature-controlled Epishear sonication platform at −20° C. to obtain DNA fragments between 200-1000 bp. An EZ-ChIP kit (EMD Millipore) was then used for chromatin immunoprecipitation using anti-ApoE4 mAb (Novus Biologicals) and anti-RNA Polymerase II mAb (Millipore) antibodies. After ChIP crosslinks were reversed and purified ChIP DNA was then analyzed by real time quantitative PCR using SYBR green master mix (Thermo) in a CFX Connect Real-Time PCR Detection System (Bio-Rad) using primers to amplify the ApoE4 binding site in the mouse SirT1 promoter: 5′[…]3′ and 5′[…]3′ (amplicon size of 125 bp). The Signals from each sample were normalized with signal of the input followed by the delta-delta-Ct method and fold change calculated with respect to the vehicle (DMSO).

[7] = tested on: SirT1 levels in N2a-E4 cells; assay: SirT1 levels by AlphaLISA in ApoE4-transfected N2a cells; type: cell-based, murine
Summary of the method: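 SirT1 enhancers screened by AlphaLISA of SirT1 protein in murine N2a neuroblastoma cells stably transfected with ApoE4. E4-AD mice dosed orally at 40 mkd (20 mg/kg BID) for 56 days, then cognition tested by Novel Object Recognition.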

[8] = PAMPA
[9] = tested on: SirT1 mRNA; assay: SirT1 mRNA level in N2a-E4 cells; type: cell-based, mouse; settings: 10 hour time point
[10] = tested on: E4-AD mice; assay: Oral treatment of ApoE4-expressing AD model mice (NOR, brain SirT1); type: in vivo, mouse; settings: ApoE4:5×FAD-TR transgenic mice
Method: Prompted by the emerging importance of the associations between ApoE4 and the expression/protein levels of SirT1, high-throughput screening (HTS) of the UCLA compound library was performed using AlphaLISA to detect SirT1 levels in murine neuroblastoma cells stably transfected with ApoE4 (E4-N2a) to identify SirT1 enhancers. […] In the in vivo study, mice were treated orally at 40 mkd (20 mg/kg BID) for 56 days and underwent assessment of cognition in the Novel Object Recognition (NOR) testing paradigm.

SMILES: CC(N)C(=O)OC(C)(C)Cc1ccc(Cl)cc1 (stereo not shown) [A03, alaproclate]
- PRMT8 protein levels [1]: does not alter PRMT8 protein levels
- PRMT8 inhibition, ranking ([2]; cell-free assay, 0.25 μM): greatest inhibition
- PRMT8 inhibition ([2]; cell-free assay, A03 at 5 μM): inhibit PRMT8
- pIC50 ([2]; cell-free assay, read-out: PRMT8 inhibition IC50): ~6.90
- dose at maximum of PRMT8 inhibition dose response ([2]; hormetic profile, plateau up to 10 μM): 0.25 µM
- SirT1 increase [3]: SirT1 increases similar to those seen in the E4-N2a cells
- PRMT1 inhibition [4]: not PRMT1 or 4
- PRMT4 inhibition [5]: not PRMT1 or 4
- ApoE4 binding to the SirT1 promoter [6]: pronounced decrease
- RNA polymerase binding to the SirT1 promoter [6]: increased binding
- SirT1 SOμM [7]: C (C = 100% increase versus control)
- SirT1 SμM [7]: A (A >20%)
- pEC50 ([7]; Mus musculus, E4-N2a cells, AlphaLISA, read-out: SirT1 increase EC50): ~5.64
- SirT1 increase ([7]; N2a-E4 cells): increased SirT1 in a dose dependent fashion
- PAMPA [8]: 3.9 and 4.04
- SirT1 mRNA level higher than DMSO control [9]: 12%

SMILES: CC(N)C(=O)OC(C)(C)Cc1ccncc1 (stereo not shown) [MP48]
- ApoE4 binding to the SirT1 promoter [6]: decreased ApoE4
- RNA polymerase binding to the SirT1 promoter [6]: increased RNA polymerase binding
- SirT1 mRNA levels in the brain [10]: increase SirT1 mRNA levels
